Data taken from article PMC9031226, “Preclinical Therapeutic Assessment of a New Chemotherapeutics [Dichloro(4,4’-Bis(2,2,3,3-Tetrafluoropropoxy) Methyl)-2,2’-Bipryridine) Platinum] in an Orthotopic Patient-Derived Xenograft Model of Triple-Negative Breast Cancers” (Pharmaceutics, 2022).

Experiments:
STAT3-DN plasmid = assay: Gel-based electrophoretic mobility shift assay; assay type: binding; conditions: 24 h, 37 °C
Description: Plasmid DNA interacting with platinum-containing compounds was studied using agarose gel electrophoresis to separate DNA fragments dependent on sizes and structures. In total, […] of STAT3-DN plasmid (BIOTOOLS Co., New Taipei City, Taiwan) around 4.8 kb provided by Dr. Chien-Huang Lin was incubated with an equal volume of increasing concentrations of compounds (5~40 µM) at 37 °C for 24 h.

HCT-15 = assay: MTT cell viability assay on HCT-15 (supplement); assay type: cell-based; conditions: 20 to 80 μM, 24 or 48 h, supplementary figure
Description: Figure S11. TFBPC and glycyrrhizic acid micelles (GAM)-encapsulated TFBPC […]
NSG mice (N = 16) with implantation of MDA-MB-231 cells on the left flank were intraperitoneally administrated with PBS (5 mL/kg), TFBPC (5 mg/kg) or glycyrrhizic acid micelles (GAM)-encapsulated TFBPC (5 mg/kg) once per week and four times total in the whole course of treatment. Tumor volume of each animal was measured by caliper for monitoring its tumor growth and then sacrificed 49 days after the first dose of treatment. Mean ± SD. **** p < 0.0001. […]
colorectal cancers. Cisplatin and three platinum-based analogues, including (4, 4-3F) PtCl2 (A), TFBPC (B) and (4, 4-5F) PtCl2 (C), were assessed for cell viability using MTT assay. MDA-MB-231 breast cancers cells (D), COLO205 (E) and HCT-15 (F) colorectal cancer cells were given various concentrations of cisplatin or analogues ranging from 20 to 80 μM for 24 or 48 h. Results were shown in mean ± SD and statistically analyzed by one-way ANOVA and Tukey’s post hoc test. * p < 0.05, ** p < 0.01, *** p < 0.001, **** p < 0.0001. […]

MCF-7 = assay: MTT cell viability assay on MCF-7; assay type: cell-based, human; conditions: for reduction in cell viability (antiproliferative effect): MCF-7, 80 μM
Description: Human cancer cell lines, including MDA-MB-231, MCF-7, COLO205 and SK-OV-3, used in this study were purchased from American Type Culture Collection (ATCC, Manassas, VA, USA). All cell cultures were maintained in a 5% CO2-containing incubator at 37 °C. Triple-negative breast cancer cell line MDA-MB-231 and estrogen receptor-positive breast cancer cells MCF-7 were cultured in Dulbecco’s Modified Eagle Medium/Nutrient Mixture F-12 medium (DMEM/F12, Thermo Fisher Scientific Inc., Waltham, MA, USA) supplemented with 1% HyClone Penicillin-Streptomycin 100X solution (Cytiva, Marlborough, MA, USA) and 10% (v/v) fetal bovine serum (Thermo Fisher Scientific Inc., Waltham, MA, USA). COLO205 colon cancer cells and SK-OV-3 ovarian cancer cells were cultured in Roswell Park Memorial Institute (RPMI) 1640 medium (Thermo Fisher Scientific Inc., Waltham, MA, USA) containing the same supplements as described above.
Cell viability was evaluated using MTT assay. […] A viable cell count was determined by adding MTT reagent (3-(4,5-Dimethyl-2-thiazolyl)-2,5-diphenyl-2H-tetrazolium bromide (MTT; SERVA, Heidelberg, Germany) at a concentration of 5 mg/mL in PBS followed by measurement of the absorbance at 570 nm for each well detected by μQuant™ universal microplate spectrophotometer (BioTek, Winowski, VT, USA). The assessment procedures were followed under the manufacturer’s instructions. The final results were represented as mean values in the same experimental group detected by a microplate reader.

[1] = tested on: P53, Ki-67, cleaved caspase 3, PD-L1; assay: Immunohistochemistry of CDX tumors; assay type: in vivo, mice; conditions: 5 mg/kg
Excerpt: (§1) Formalin-fixed and paraffin-embedded 4 μm sections of tumor and organs from cell-bearing xenograft models were stained in hematoxylin and eosin to provide an overall morphology of tissues. Tumor sections were dewaxed with UltraClear™ (J.T.Baker, Phillipsburg, NJ, USA), rehydrated in a descending series of alcohol and water and had antigens unmasked in pH 6 or pH 9 Epitope Retrieval Solution (Leica Biosystems Inc., Wetzlar, Germany) in a microwave pressure cooker. […] VisUCyte HRP Polymer Antibody against rabbit IgG (VC003-025; R&D Systems, Minneapolis, MN, USA) and mouse IgG (VC001-025; R&D Systems, Minneapolis, MN, USA) were targeted to primary antibodies. Liquid DAB+ system from Agilent Technologies (Santa Clara, CA, USA) was applied as a chromogen for visualizing. Slides were mounted after hematoxylin counterstaining. All images were scanned using Motic EasyScan Pro 6 pathology slide scanner (Motic China Group Co., Ltd., Hong Kong, China).

MDA-MB-231 = assay: Western blotting of apoptosis and autophagy markers; assay type: cell-based, human; conditions: MDA-MB-231, Western blotting
Description: Each sample containing 30 μg protein mixture was loaded into a well on SDS-PAGE gel and separated through electrophoresis, followed by protein determination using specific antibodies against PARP (1:1000, Cat. #9542; Cell Signaling Technology, Danvers, MA, USA), GAPDH (1:5000, Cat. GTX100118; GeneTex, Irvine, CA, USA), Bax (1:1000, Cat. ARG65612; Arigo, Glasgow, UK), Bcl-2 (1:1000, Cat. ARG55188; Arigo, Glasgow, UK) and LC3-I/II (1:1000, Cat. #12741; Cell Signaling Technology, Danvers, MA, USA). Primary antibodies were targeted by horseradish peroxidase (HRP) conjugated anti-mouse (1:5000, Cat. A9044, Sigma-Aldrich, Burlington, VT, USA) or anti-rabbit (1:5000, Cat. SI-A0545; Sigma-Aldrich, Burlington, VT, USA) secondary antibodies for visualizing immunoblots. Results were imaged by ChemiDoc system (Bio-Rad Laboratories, Hercules, CA, USA) and semi-quantification was conducted using Image Lab system (Bio-Rad Laboratories, Hercules, CA, USA).

[2] = HE staining of major organs (CDX model); assay type: in vivo, mice; conditions: xenograft model
Excerpt: as §1

[3] = target: bovine serum albumin (BSA) (Bos taurus, UniProt P02769); assay: UV-Vis spectrum of BSA-drug complex; assay type: binding; conditions: 250 μM BSA in PBS pH 7.4, 20-640 μM
Chain of bovine serum albumin (BSA) (P02769 25-607): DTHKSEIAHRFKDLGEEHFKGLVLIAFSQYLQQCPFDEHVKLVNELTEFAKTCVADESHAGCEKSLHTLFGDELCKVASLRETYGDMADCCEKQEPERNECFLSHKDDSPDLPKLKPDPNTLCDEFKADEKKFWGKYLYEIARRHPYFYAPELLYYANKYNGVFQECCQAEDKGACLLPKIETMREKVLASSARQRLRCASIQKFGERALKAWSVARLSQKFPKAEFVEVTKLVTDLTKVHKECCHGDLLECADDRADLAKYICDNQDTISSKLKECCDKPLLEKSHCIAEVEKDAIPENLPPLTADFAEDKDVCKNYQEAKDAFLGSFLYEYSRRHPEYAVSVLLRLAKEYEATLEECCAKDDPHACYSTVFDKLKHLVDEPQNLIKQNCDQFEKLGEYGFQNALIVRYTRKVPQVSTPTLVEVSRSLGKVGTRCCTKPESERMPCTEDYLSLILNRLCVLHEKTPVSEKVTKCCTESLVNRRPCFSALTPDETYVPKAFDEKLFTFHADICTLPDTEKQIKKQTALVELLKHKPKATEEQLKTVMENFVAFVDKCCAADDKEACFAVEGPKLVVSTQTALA
Excerpt: Absorption between the wavelengths of 220 nm and 500 nm was detected by measuring absorbance every 2 nm via Thermo Varioskan Flash microplate reader (Thermo Fisher Scientific Inc., Waltham, MA, USA). The maximal absorbance of BSA at 278 nm was marked to highlight the spectrum in pure BSA without chemical intercalation.

| SMILES | breakage of plasmid DNA (nicked or linear forms) (STAT3-DN plasmid) | cell viability of HCT-15 cells (HCT-15) | reduction in cell viability (antiproliferative effect) (MCF-7) [%] | IC50 (MCF-7; MCF-7, MTT assay, 48 h) [µM] | IC50 Values (MCF-7; MCF-7, MTT assay, 48 h) | expression of P53, Ki-67 and PD-L1 in tumors (IHC) [1] | expression of cleaved caspase 3 in tumors (IHC) [1] | Bax/Bcl-2 ratio (MDA-MB-231) | LC3 I conversion to LC3 II (autophagy marker) (MDA-MB-231) | cleaved form of PARP (MDA-MB-231) | pathophysiological changes in heart, kidneys, liver, lungs and spleen (HE staining) [2] | UV absorbance of BSA at 278 nm vs. concentration [3] |
| --- | --- | --- | --- | --- | --- | --- | --- | --- | --- | --- | --- | --- |
| FC(F)C(F)(F)COCc1ccnc(-c2cc(COCC(F)(F)C(F)F)ccn2)c1.[Cl][Pt][Cl] [TFBPC] | induced single or double breakages of plasmid DNA | statistically reduced cell viability | 28 | > 80 | resistant | lowest level in expressions of P53, Ki-67 and PD-L1 | highest expression of cleaved caspase 3 | increase in Bax/Bcl-2 ratio | LC3 I conversion to LC3 II | formation of the cleaved form of PARP | No obvious pathophysiological changes | positively correlated |
| N.N.[Cl][Pt][Cl] [CDDP, Cis-diamineplatinum(II) dichloride] | induced single or double breakages of plasmid DNA | – | 19 | > 80 | – | lower intensity in P53, Ki-67 and PD-L1 | higher intensity of cleaved caspase 3 | – | could not induce apoptotic and autophagy signaling | failed to induce the formation of the cleaved form of PARP | – | – |
